The results in this text go back to paper PMC6906394, “Radiomodifying action, Pharmacokinetic and Biodistribution of Ethyl 3, 4, 5-trihydroxybenzoate-Implication in development of radiomitigator” (Scientific Reports, 2019).

What is called Cmax is the maximum level reached in the sampled fluid or tissue. One may read the AUC(0-t) as the area under the concentration-time curve up to a stated or last time point. As a reminder, the Tmax is the time at which the peak concentration occurs. For orientation: half-life means the time in which the quantity being followed falls by half.

For one series, the system named is NF-kB. Kind of series: Quantification of NF-kB in liver and kidney by indirect ELISA. The series is classed as in vivo, mice. Conditions: GAE 200 mg/kg oral 15 min after 5 Gy whole body irradiation, p < 0.05, upto 8 h. Here is the method:
Black C57BL/6 male mice weighing 28–30 g were maintained at the Institutional Animal Experimental Facility. Animals were fed according to standard chow diet having free access to food and water ad libitum. The environmental condition was maintained at room temperature (22 ± 2 °C), relative humidity (45–60%) and 12 h dark/light cycle controlled facility. In this study, mice were randomly assigned to four different groups (n = 21) i.e untreated control (UC), GAE-treated (GAE), Radiation + GAE (R + GAE), Radiation group (R). Mice fasted overnight with free access to water before being dosed. Isolated GAE from leaves was dissolved with distilled water and ethanol in (7:3 v/v) and administered orally at a dose of 200 mg/kg body weight to GAE-treated and R + GAE treated groups only. […]
Measurement of NF-kB activity was done in accordance to the manufacturer’s protocol purchased from BD-biosciences. […] After development of colour 50 µl of stop solution was added to the wells and absorbance was recorded at 490 nm. A standard curve was prepared from the data produced from the serial dilution of the pure NF-kB proteins with concentration on the x-axis (log scale) vs absorbance on the Y-axis (linear).
For orientation: ELISA stands for enzyme-linked immunosorbent assay.

Series [1] can be described thus: Plasma pharmacokinetics of GAE after single oral administration (HPLC, non-compartmental). The following applies: 200 mg/kg b.wt oral; for Cmax / AUC(0-t) / Tmax / half-life / AUC: 200 mg/kg; for Kel: in 1/min; for AUC: read-out: AUC0-α (converted). The series is classed as in vivo, mice. Here is the method:
The developed method was successfully employed to determine GAE concentration in mouse plasma and tissue samples after single oral administration of GAE at a single dose (200 mg/kg body weight) in GAE and Radiation + GAE (R + GAE) treated group. […] Pharmacokinetic parameter analysis is presented in (Table 2, Table 3).
(§1) Black C57BL/6 male mice weighing 28–30 g were maintained at the Institutional Animal Experimental Facility. Animals were fed according to standard chow diet having free access to food and water ad libitum. The environmental condition was maintained at room temperature (22 ± 2 °C), relative humidity (45–60%) and 12 h dark/light cycle controlled facility. In this study, mice were randomly assigned to four different groups (n = 21) i.e untreated control (UC), GAE-treated (GAE), Radiation + GAE (R + GAE), Radiation group (R). Mice fasted overnight with free access to water before being dosed. Isolated GAE from leaves was dissolved with distilled water and ethanol in (7:3 v/v) and administered orally at a dose of 200 mg/kg body weight to GAE-treated and R + GAE treated groups only. The experiment was carried out in accordance to regulation and guideline of the, Committee for the purpose of control and supervision of Experiments on animals (CPCSEA), and study was approved by Institutional Animal Experimental Committee (IAEC), Institute of Nuclear Medicine & Allied Science, Delhi, India.
(§2) Group I untreated control (UC), Group II GAE-treated (GAE), Group III Radiation + GAE (R + GAE) and Group IV Radiation (R) exposed. The GAE was administered orally 15 min post irradiation. The whole-body radiation (5 Gy) was carried out using Bhabahtron II, Telecobalt machine, Panacea medical technology, Bangalore. The mice exposed at a dose rate of 0.961 Gy/min at field 35 × 35 cm^2 and the distance maintained from the source was 80 cm.
Blood and tissues samples of mice were collected at 15 min, 30 min, 1 h, 2 h, 4 h, 8 h and 24 h after GAE administration (3mice per time). Blood was obtained from retro orbital plexus of mice and collected in heparinized eppendorf tubes, followed by centrifugation at 2500 g for 15 min. The resulting plasma layer was separated and stored in tubes at −20 °C for further analysis. Tissue samples (brain, heart, liver, kidney, and spleen) were weighed and put into the normal saline solution to remove the blood by blotting on filter paper and were minced and homogenized with physiological saline solution (1:2 w/v) thoroughly in an ice bath. The homogenates were stored at −80 °C until the analysis.
Aliquot of plasma sample (100 µL) dispensed in standing vial deproteinized with ACN (200 µL) containing the IS (100 ng/mL) and centrifuged at 2500 g for 15 min at 4 °C. The supernatant was collected transferred to a clean glass tube, reconstituted with 200 µL mobile phase vortexed mixed for 2 min and centrifuged at 2500 g for 5 min. Following this, a 20 µL aliquot of supernatant was injected into the HPLC system for analysis.
GAE was separated on the high-performance liquid chromatography (HPLC), SPD-10A consisting of binary HPLC pump, ultraviolet detector, and a Rheodyne manual injector equipped with a 20 µl loop (Shimadzu, Japan). Separation was achieved on Kinetex Biphenyl RP 100 Å column (2.6 µm, 150 × 4.6 mm) (Phenomenex, Torrance) installed with phenyl cartridges (Phenomenex, Torrance). The system was controlled using class VP software (Shimadzu, Japan). The chromatographic separation of GAE was in approximately within 10 min, at room temperature by using the isocratic mobile phase mixture of ACN and 1%OPA (30:70, v/v) with pH maintained at 3.3. 20 µL of the samples were injected at a flow rate of 0.5 mL/min and the wavelength 270 nm was used for detection. […]

Series [2] has as its system whole body 60Co-gamma irradiated mice. Kind of series: Liver and kidney function markers SGOT, SGPT, urea and creatinine after irradiation. It is filed as in vivo. Here is the method:
as §1, §2
SGOT and SGPT are a biomarker of liver function test used to assess liver function and its damage; whereas, urea and creatinine were used to investigate kidney function and its damage. These biomarkers were analyzed in-vitro by the use of commercially available kits of agape, Kerala, India. The assay were performed according to standard procedure mention in the kit protocol. In-vitro SGOT quantitative determination were based on the reaction of L-aspartate with alpha-ketoglutarate. According to the manufacturer protocol reagent were mix and incubated for 1 minute at 37 °C. The changes in absorbance were recorded per minute during 3 minutes. In-vitro kinetic determination of SGPT were based on the reaction of L-alanine with alpha-ketoglutarate. The reagent were mixed and incubated for 1 minute at 37 °C. the changes in absorbance was recorded per minute during 3 minutes at 340 nm. Urea is in-vitro quantitative determine by the method of Talke et al., 1965. Creatinine were in-vitro determined by kits and it can be measured by quionone pigment photometrically. Reagent were mixed and incubated for 5 minute at 37 °C. the sample absorbance and the standard against the reagent blank were measured at 546 nm.

The mark [3] stands for this setting: R + GAE group (60Co-γ 5 Gy, GAE 15 min post irradiation).
[4] abbreviates: male, C57BL/6, mouse, po, GAE treated group.
Setting [5] is: male, C57BL/6, mouse, po, R + GAE group (60Co-γ 5 Gy, GAE 15 min post irradiation).
[6] abbreviates: R + GAE group (5 Gy, GAE 200 mg/kg oral 15 min post irradiation), 8 h.
Where [7] appears, read: R + GAE group (5 Gy, GAE 200 mg/kg oral 15 min post irradiation), 24 h.

The structures appear in SMILES notation. “Also recorded” adds a separate entry of the source. Where two headings read alike, the source gives them in different places.

Take `CCOC(=O)c1cc(O)c(O)c(O)c1` [GAE, Ethyl 3,4,5-trihydroxybenzoate]: the “NF-kB level/expression in liver and kidney compared to irradiated mice” value in the series with NF-kB is reported as “inhibits NF-kB expression; also recorded: significant minimal expression; also recorded: significantly inhibits; also recorded: significantly reduces”. Further, in series [1] (GAE treated group), the Clearance was determined as 0.017 ± 0.0005 mL/min, the maximum concentration (Cmax) amounted to 4390.85 ± 285.20 ng/mL and the Kel came to 0.026 ± 0.003. In series [1] (setting [3]), the Clearance is 0.07 ± 0.01 mL/min and the Kel is 0.025 ± 0.02. For the same compound, in series [1] (setting [4]), the AUC(0-t) is 2920 ng·h/mL, the time of peak concentration (Tmax) is around 15 min, the half-life was found to be 26.5 ± 3.2 min and the AUC was 2930 ng·h/mL. In addition, the Cmax in series [1] (male, C57BL/6, mouse, po, GAE treated group, read-out: Cmax) came to 4390 ± 285 ng/mL. In addition, in series [1] (setting [5]), the exposure AUC(0-t) is 1070 ng·h/mL, the Tmax is around 15 min, the half-life was determined as 22.4 ± 3.6 min and the AUC is 1070 ng·h/mL. The Cmax in series [1] (male, C57BL/6, mouse, po, R + GAE group (60Co-γ 5 Gy, GAE 15 min post irradiation), read-out: Cmax) amounted to 3390 ± 78.1 ng/mL. Further, the “change of SGOT, SGPT, urea and creatinine in serum compared to irradiated animals not receiving GAE” value in series [2] (GAE 200 mg/kg b.wt oral 15 min post 5 Gy irradiation, P < 0.05) is listed as “significant reduction”. In series [2] (setting [6]), the SGOT level is reported as 24.10 ± 2.4 U/L, the SGPT level amounted to 36.01 ± 6.1 U/L and the urea level was 18.16 ± 0.003 mg/dL. In series [2] (setting [7]), the SGOT level is given as 63.11 ± 6.16 U/L and the SGPT level was 62.15 ± 8.63 U/L. For the same compound, the creatinine level in series [2] (R + GAE group (5 Gy, GAE 200 mg/kg oral 15 min post irradiation), upto 8 h) is 1.05 ± 0.04 mg/dL. In addition, the “duration of radiomodifying action” value in series [2] (post irradiation (5 Gy), liver and kidney function biomarkers, efficacy reduced at 24 h) is recorded as at most 8 h.
